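Briefly, cells in 96-well plates were exposed to five compound concentrations for 48 h, and endpoints were estimated by linear interpolation. GI50 is the concentration that inhibits growth by half. TGI is the concentration that stops growth completely.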
Legend:
Experiment in all cases: NCI tumour cell line growth inhibition, 48 h
[1] = test system: CAKI-1 renal
[2] = test system: SNB-75 CNS
[3] = test system: HCT-15 colon
[4] = test system: HT29 colon
[5] = test system: 786-0 renal
[6] = test system: PC-3 prostate
[7] = test system: OVCAR-4 ovarian
[8] = test system: LOX IMVI melanoma
[9] = test system: SR leukemia
[10] = test system: UO-31 renal
[11] = test system: OVCAR-5 ovarian
[12] = test system: MCF7 breast
[13] = test system: SF-295 CNS
[14] = test system: SK-MEL-2 melanoma
[15] = test system: SK-OV-3 ovarian
[16] = test system: A498 renal
[17] = test system: NCI-H460 lung
[18] = test system: HOP-62 NSCLC
[19] = test system: SK-MEL-28 melanoma
[20] = test system: MOLT-4 leukemia
[21] = test system: DU-145 prostate
[22] = test system: MDA-MB-435
[23] = test system: SW-620 colon
[24] = test system: K-562 leukemia
[25] = test system: HCC-2998 colon
[26] = test system: UACC-257 melanoma
[27] = test system: UACC-62 melanoma
[28] = test system: ACHN renal
[29] = test system: NCI-H23 lung
[30] = test system: HL-60(TB) leukemia
[31] = test system: MALME-3M melanoma
[32] = test system: NCI/ADR-RES ovarian
[33] = test system: NCI-H226 lung
[34] = test system: SN12C renal
[35] = test system: IGROV1 ovarian
[36] = test system: SNB-19 CNS
[37] = test system: U251 CNS
[38] = test system: TK-10 renal
[39] = test system: M14 melanoma
[40] = test system: HOP-92 NSCLC
[41] = test system: CCRF-CEM leukemia
[42] = test system: OVCAR-3 ovarian
[43] = test system: KM12 colon
[44] = test system: SF-268 CNS
[45] = test system: NCI-H522 lung
[46] = test system: A549 NSCLC
[47] = test system: MDA-MB-231 breast
[48] = test system: OVCAR-8 ovarian
[49] = test system: HCT-116 colon
[50] = test system: SF-539 CNS
[51] = test system: MDA-N
[52] = test system: SK-MEL-5 melanoma
[53] = test system: COLO 205 colon
[54] = test system: T-47D breast
[55] = test system: RXF 393 renal
[56] = test system: HS 578T breast
[57] = test system: RPMI-8226 leukemia
[58] = test system: BT-549 breast
[59] = test system: EKVX NSCLC

With `COc1ccc(-c2c(C(C)=O)c(C)n(C3OC(COC(C)=O)C(OC(C)=O)C(OC(C)=O)C3OC(C)=O)c(=S)c2C#N)cc1` (configuration not stated) the TGI [1] was over 100 µM, the TGI [2] was over 100 µM and the TGI [3] was over 100 µM. The TGI [4] was over 100 µM, the TGI [5] was over 100 µM and the TGI [6] was over 100 µM. The TGI [7] was over 100 µM, the TGI [8] was over 100 µM and the TGI [9] was over 100 µM. It also gave a TGI [10] of 5.01 µM, a TGI [11] of over 100 µM and a TGI [12] of over 100 µM. The TGI [13] was over 100 µM, the TGI [14] was over 100 µM and the TGI [15] was over 100 µM. The TGI [16] was over 100 µM, the TGI [17] was over 100 µM and the TGI [18] was over 100 µM. It also gave a TGI [19] of over 100 µM, a TGI [20] of over 100 µM and a TGI [21] of over 100 µM. For the same compound, the TGI [22] was over 100 µM, the TGI [23] was over 100 µM and the TGI [24] was over 100 µM. It also gave a TGI [25] of over 100 µM, a TGI [26] of over 100 µM and a TGI [27] of over 100 µM. The TGI [28] was over 100 µM, the TGI [29] was over 100 µM and the TGI [30] was over 100 µM. It also gave a TGI [31] of over 100 µM, a TGI [32] of over 100 µM and a TGI [33] of over 100 µM. It also gave a TGI [34] of over 100 µM, a TGI [35] of over 100 µM and a TGI [36] of over 100 µM. The TGI [37] was over 100 µM, the TGI [38] was over 100 µM and the TGI [39] was over 100 µM. For the same compound, the TGI [40] was 84.6 µM, the TGI [41] was over 100 µM and the TGI [42] was over 100 µM. The TGI [43] was over 100 µM, the TGI [44] was over 100 µM and the TGI [45] was over 100 µM. It also gave a TGI [46] of over 100 µM, a TGI [47] of over 100 µM and a TGI [48] of over 100 µM. The TGI [49] was over 100 µM, the TGI [50] was over 100 µM and the TGI [51] was over 100 µM. The TGI [52] was over 100 µM, the TGI [53] was over 100 µM and the TGI [54] was over 100 µM. The TGI [55] was over 100 µM.
For `CC(C)[C@]12O[C@H]1[C@@H]1O[C@]13[C@]1(O[C@H]1C[C@H]1C4=C(CC[C@@]13C)C(=O)OC4)[C@@H]2OC(=O)OC(C)(C)C`, the GI50 [1] was 0.0226 µM, the TGI [1] was over 100 µM and the GI50 [2] was 0.0193 µM. The TGI [2] was 0.062 µM, the GI50 [3] was 0.0253 µM and the TGI [3] was over 100 µM. The GI50 [4] was under 0.0121 µM, the GI50 [5] was 0.0308 µM and the TGI [5] was over 100 µM. For the same compound, the GI50 [6] was 0.0238 µM, the TGI [6] was over 41.3 µM and the GI50 [56] was 0.019 µM. It also gave a TGI [56] of 0.0713 µM, a GI50 [7] of 0.0273 µM and a TGI [7] of over 100 µM. For the same compound, the GI50 [8] was under 0.01 µM, the TGI [8] was over 100 µM and the GI50 [9] was 0.0159 µM. For the same compound, the GI50 [10] was 0.0164 µM, the TGI [10] was over 100 µM and the GI50 [11] was 0.0419 µM. It also gave a TGI [11] of over 100 µM, a GI50 [12] of under 0.0144 µM and a TGI [12] of over 100 µM. For the same compound, the GI50 [13] was 0.0336 µM, the TGI [13] was over 100 µM and the GI50 [14] was 0.0185 µM. It also gave a TGI [14] of 0.0603 µM, a GI50 [15] of 0.0402 µM and a TGI [15] of over 100 µM. For the same compound, the GI50 [16] was 0.0145 µM, the TGI [16] was 0.0454 µM and the GI50 [17] was under 0.01 µM. For the same compound, the TGI [17] was over 33.6 µM, the GI50 [18] was 0.0146 µM and the TGI [18] was over 100 µM. It also gave a GI50 [19] of 0.0176 µM, a GI50 [20] of 0.0156 µM and a GI50 [21] of 0.0204 µM. It also gave a TGI [21] of over 100 µM, a GI50 [22] of 0.0122 µM and a TGI [22] of 0.0478 µM. The GI50 [23] was under 0.01 µM, the TGI [23] was over 100 µM and the GI50 [24] was 0.0199 µM. It also gave a TGI [24] of over 100 µM, a GI50 [25] of 0.0166 µM and a TGI [25] of 0.064 µM. It also gave a GI50 [26] of 0.0176 µM, a TGI [26] of 0.0544 µM and a GI50 [27] of 0.0178 µM. The TGI [27] was 0.0571 µM, the GI50 [28] was 0.0107 µM and the TGI [28] was over 100 µM. The GI50 [29] was under 0.01 µM, the TGI [29] was 0.0569 µM and the GI50 [30] was under 0.01 µM. For the same compound, the TGI [30] was 0.805 µM, the GI50 [31] was 0.0166 µM and the TGI [31] was 0.0555 µM. It also gave a GI50 [32] of 0.0286 µM, a TGI [32] of 10.5 µM and a GI50 [33] of under 0.0143 µM. It also gave a TGI [33] of 0.173 µM, a GI50 [34] of 0.0261 µM and a TGI [34] of over 100 µM. It also gave a GI50 [35] of 0.0164 µM, a GI50 [36] of 0.128 µM and a TGI [36] of over 100 µM. It also gave a GI50 [37] of 0.0253 µM, a TGI [37] of over 100 µM and a GI50 [38] of 0.0329 µM. It also gave a TGI [38] of over 100 µM, a GI50 [39] of 0.0157 µM and a TGI [39] of 0.0336 µM. The GI50 [40] was 0.0448 µM, the GI50 [41] was 0.0377 µM and the TGI [41] was over 100 µM. It also gave a GI50 [57] of 0.0195 µM, a TGI [57] of over 42.5 µM and a GI50 [42] of 0.0171 µM. For the same compound, the TGI [42] was 0.883 µM, the GI50 [43] was 0.116 µM and the TGI [43] was 3.41 µM. The GI50 [44] was 0.0251 µM, the TGI [44] was 0.26 µM and the GI50 [58] was 0.0172 µM. For the same compound, the TGI [58] was 0.0616 µM, the GI50 [45] was 0.0137 µM and the TGI [45] was 0.0635 µM. The GI50 [46] was 0.0206 µM, the TGI [46] was over 100 µM and the GI50 [47] was 0.0543 µM. For the same compound, the TGI [47] was over 100 µM, the GI50 [48] was 0.0281 µM and the TGI [48] was over 100 µM. For the same compound, the GI50 [49] was under 0.0107 µM, the TGI [49] was over 100 µM and the GI50 [50] was 0.0217 µM. The TGI [50] was 0.294 µM, the GI50 [52] was 0.0114 µM and the TGI [52] was 0.0247 µM. The GI50 [53] was 0.014 µM, the TGI [53] was 0.0319 µM and the GI50 [54] was 0.027 µM. The TGI [54] was over 100 µM, the GI50 [59] was 0.0573 µM and the TGI [59] was over 100 µM. It also gave a GI50 [55] of under 0.0118 µM and a TGI [55] of 0.0286 µM.
`CC1(C)OP(=O)(c2ccccc2)C=C1Br` (configuration not stated) gave a TGI [1] of over 100 µM, a TGI [2] of over 100 µM and a TGI [3] of over 100 µM. The TGI [4] was over 100 µM, the TGI [5] was over 100 µM and the TGI [6] was over 100 µM. It also gave a TGI [56] of over 100 µM, a TGI [7] of over 100 µM and a TGI [8] of over 100 µM. It also gave a TGI [9] of over 100 µM, a TGI [11] of over 100 µM and a TGI [13] of over 100 µM. It also gave a TGI [14] of over 100 µM, a TGI [15] of over 100 µM and a TGI [16] of over 100 µM. It also gave a TGI [17] of over 100 µM, a TGI [18] of over 100 µM and a TGI [19] of over 100 µM. It also gave a TGI [21] of over 100 µM, a TGI [22] of over 100 µM and a TGI [23] of over 100 µM. For the same compound, the TGI [24] was over 100 µM, the TGI [25] was over 100 µM and the TGI [26] was over 100 µM. For the same compound, the TGI [27] was over 100 µM, the TGI [28] was over 100 µM and the TGI [29] was over 100 µM. For the same compound, the TGI [30] was over 100 µM, the TGI [31] was over 100 µM and the TGI [32] was over 100 µM. The TGI [33] was over 100 µM, the TGI [34] was over 100 µM and the TGI [35] was over 100 µM. For the same compound, the TGI [36] was over 100 µM, the TGI [37] was over 100 µM and the TGI [38] was over 100 µM. It also gave a TGI [39] of over 100 µM, a TGI [40] of over 100 µM and a TGI [57] of over 100 µM. For the same compound, the TGI [42] was over 100 µM, the TGI [43] was over 100 µM and the TGI [44] was over 100 µM. It also gave a TGI [45] of over 100 µM, a TGI [46] of over 100 µM and a TGI [48] of over 100 µM. The TGI [49] was over 100 µM, the TGI [50] was over 100 µM and the TGI [51] was over 100 µM. It also gave a TGI [52] of over 100 µM, a TGI [53] of over 100 µM and a TGI [54] of over 100 µM. The TGI [59] was over 100 µM.

— PubChem BioAssay (NCI)
